# Assay results reported in patent US12296027B2, “Molecular renal probes for detecting acute kidney injury” (Nanyang Technological University, priority 2019, dated 2025).
# “And” between values parts separate entries of the source, which are not always exact repeats. Equal entries are not always repeated.
# Tests used:
# [1] = Renal clearance efficiency studies (urine HPLC); format: in vivo; conditions: healthy mice, i.v.
# Experimental: NCr nude mice were i.v. injected with the uncaged fluorophores (CMe, CP2, CP5 and CCD, 8 μmol kg^−1 body weight), MRPs1-3 (8 μmol kg^−1 body weight) or MRPD (32 μmol kg^−1 body weight) and placed in metabolic cages (3 mice were analysed for each sample). […] Urine was collected at 1, 3, 6, 9 and 24 h post-injection, centrifuged at 4500 r.p.m. for 8 min and filtered by 0.22 μm syringe filter. Excretion of the uncaged fluorophores and MRPs in the urine was quantified using HPLC. Mice were sacrificed to image resected organs after 24 h urine collection. Fluorescence intensities for resected organs were analysed by the ROI analysis using the Living Image 4.3 Software. Major organs were collected, homogenised in PBS buffer (10 mM, pH 7.4) and centrifuged at 4500 r.p.m for 15 min to remove insoluble components. Fluorescence intensities of the final supernatants were measured on fluorescence spectrophotometer.
# Mice were i.v. injected with ADR (30 μmol kg^−1 body weight) and placed in metabolic cages. Urine was collected at 1, 3, 6, 9 and 24 h post-injection, diluted in PBS and centrifuged at 4500 r.p.m. for 10 min and filtered by 0.22 μm syringe filter. ADR in the urine was quantified using HPLC. The absorption and fluorescence spectra were measured for the urine samples. […]
# [2] = Photophysical properties (absorption, fluorescence, quantum yield); format: physicochemical
# Experimental: Optical measurement. […] The ADR solution (30 μM) was incubated with KO2 (60 μM) and NAG (40 mU), respectively, in PBS (10 mM, pH 7.4) at 37° C. […] Fluorescence images were acquired using the IVIS spectrum imaging system with excitation at 675±10 nm (640±10 nm for MRPD) and emission at 720±10 nm (760±10 nm for MRPD) and the acquisition time of 0.1 s. Chemiluminescence images were acquired under bioluminescence mode with open filter and the acquisition time of 1 s. The sensing capability of MRPs was analysed through HPLC. UV-Vis and fluorescence spectra of the uncaged fluorophores solution (30 μM) in PBS (10 mM, pH 7.4) were recorded on UV-Vis and fluorescence spectrophotometers.
# Measurement of fluorescence quantum yields. ICG was used as a standard with a known fluorescence quantum yield (ϕ) value of 13% in DMSO (R. C. Benson, H. A. Kues, J. Chem. Eng. Data 1977, 22, 379-383). Fluorescence quantum yields were calculated using the following equation: ϕs/ϕf=(As/Af)×(Abss/Absf)×(ηs^2/ηf^2), Where ϕs and ϕf are the fluorescence quantum yields of the standard and the samples, respectively; As and Af are the emission areas of the standard and the samples, respectively; Abss and Absf are the absorbance of the standard and the samples at the wavelength of excitation; ηs and ηf are the refractive indices of the standard and the samples, respectively.
# [3] = In vivo biodistribution by NIRF imaging; design: species or system mice; conditions: i.v., 8 μmol kg^−1 (MRPD 32 μmol kg^−1)
# Experimental: All animal studies were performed in compliance with the guidelines set by the Institutional Animal Care and Use Committee (IACUC), Sing Health. Female nude mice (Tac:Cr:(NCr)-Fox1nu, 8 weeks old) were obtained from InVivos Pte Ltd (Singapore). Aged female nude mice (25 weeks old) were obtained by feeding after receive at 8 weeks old. Female Balb/c mice (10 weeks old), male type 2 diabetic BKS-db mice (BKS-Lepr^em2Cd479 with a C57BLKS/J background, 12 weeks old) and male nondiabetic C57BLKS/J wild-type mice (12 weeks) were obtained from Nanjing Biomedical Research Institute of Nanjing University (Nanjing, China). NCr nude mice were i.v. injected with 0.2 ml saline (control), the uncaged fluorophores (CMe, CP2, CP5 and CCD, 8 μmol kg^−1 body weight) or MRPD (32 μmol kg^−1 body weight), and imaged using the IVIS spectrum imaging system at 30 and 60 min post-injection. The abdominal cavity and resected organs from mice were imaged after sacrifice at t=60 min post-injection. Fluorescence images were acquired using the IVIS spectrum imaging system with excitation at 675±10 nm (640±10 nm for MRPD) and emission at 720±10 nm (760±10 nm for MRPD). Fluorescence intensities for each organ were analysed by the region of interest (ROI) analysis using the Living Image 4.3 Software (3 mice were analysed for each sample).
# [4] = in 3 h, Patients; cited from earlier work
renal clearance efficiency at 24 h post-injection [1],Renal clearance efficiency (%) ([1]; Table 5),Stokes shift [2],"λab, wavelength of maximum absorbance ([2]; PBS pH 7.4)","λem, wavelength of maximum emission ([2]; PBS pH 7.4)",Compound,biodistribution at 1 h post-injection (ex vivo NIRF) [3],Renal clearance efficiency [4]
nearly undetectable in urine,<5%,25 nm,690 nm and 697 nm,720 nm and 722 nm,C[N+]1=C(/C=C/C2=C3Oc4cc(O)ccc4C=C3CCC2)C(C)(C)c2ccccc21 [CMe],"mainly accumulated in the liver, gallbladder, and intestine",
,,,,,O=C([O-])CN=C([O-])CN=C([O-])CN=C([O-])C[S-].[O-2].[Tc+4] [^99mTc-MAG3],,90% ID in 3 h
